What all share (format): biochemical
For one test, the target named is cathepsin L (Homo sapiens, UniProt P07711). Nature of the test: Inhibitory activity assay against cathepsin L (enzyme assay). To be noted: Z-Phe-Arg-AMC 2 μM, enzyme 3 nM, pH 5.5, 30 minutes. In short, it runs like this:
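IC50s came from 4-parameter logistic fits of ten concentrations (10.0 μM down to 0.000508 μM). Reaction: 30 min, 3 nM enzyme, 2 μM Z-Phe-Arg-AMC, pH 5.5 MES buffer containing DTT, EDTA, Polysorbate 20 and 10% DMSO; fluorescence read 340/460 nm.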

In the next test the target is T1, cathepsin K (Homo sapiens, UniProt P43235).
T1 sequence (P43235 115-329): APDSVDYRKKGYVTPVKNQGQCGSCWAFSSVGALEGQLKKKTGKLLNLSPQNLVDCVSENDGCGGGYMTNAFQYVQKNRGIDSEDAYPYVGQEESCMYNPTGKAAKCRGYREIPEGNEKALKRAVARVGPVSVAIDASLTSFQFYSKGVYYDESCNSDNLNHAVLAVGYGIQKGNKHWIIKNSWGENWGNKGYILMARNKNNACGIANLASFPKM
Nature of the test: Inhibitory activity assay against cathepsin K (enzyme assay). To be noted: Z-Phe-Arg-AMC 10 μM, enzyme 1 nM, pH 5.5, 30 minutes. In short, it runs like this: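 IC50 by 4-parameter logistic fit of fluorescence (ex 355 nm, em 460 nm) after 30 min reaction. Compound tested at 10 final concentrations from 10.0 μM down to 0.000508 μM against 1 nM enzyme and 10 μM Z-Phe-Arg-AMC, in MES buffer pH 5.5 with DTT, EDTA, Triton X-100 and 10% DMSO.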

For a further test, the target named is cathepsin B (Homo sapiens, UniProt P07858). The test is described as follows: Inhibitory activity assay against cathepsin B (enzyme assay). The following applies: Z-Arg-Arg-AMC 40 μM, enzyme 1 nM, pH 6.0, 90 minutes. A digest of the protocol:
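Reaction run 90 min in MES buffer pH 6.0 containing DTT, EDTA, Polysorbate 20 and 10% DMSO, using 40 μM fluorogenic Z-Arg-Arg-AMC and 1 nM cathepsin B. Ten compound levels from 10.0 μM; AMC fluorescence at ex 340/em 460 nm fitted to a 4-parameter logistic for IC50.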

The next test addresses cathepsin S (Homo sapiens, UniProt P25774). Nature of the test: Inhibitory activity assay against cathepsin S (enzyme assay). The following applies: Z-Phe-Arg-AMC 70 μM, enzyme 3 nM, pH 6.5, 45 minutes. In short, it runs like this: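 Ten-point compound titration (10.0 to 0.000508 μM final) reacted 45 min with 3 nM cathepsin S and 70 μM Z-Phe-Arg-AMC in MES 50 mM pH 6.5, DTT 2.5 mM, EDTA 1.0 mM, BSA 0.001%, DMSO 10%. AMC release read at 340/460 nm; IC50 from four-parameter logistic fit.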

The record followed here is patent US11299478B2, “2-cyanopyrimidin-4-yl carbamate or urea derivative or salt thereof, and pharmaceutical composition including same” (HANLIM PHARMACEUTICAL CO., LTD., priority 2018, dated 2022).

cathepsin L, sequence (P07711 114-333, species assumed): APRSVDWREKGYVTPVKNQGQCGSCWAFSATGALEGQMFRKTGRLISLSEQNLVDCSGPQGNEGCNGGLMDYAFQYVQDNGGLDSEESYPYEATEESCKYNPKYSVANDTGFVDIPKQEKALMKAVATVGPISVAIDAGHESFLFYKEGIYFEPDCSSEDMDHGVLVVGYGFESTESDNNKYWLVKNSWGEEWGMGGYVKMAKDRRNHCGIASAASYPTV
cathepsin S, sequence (P25774 115-331, species assumed): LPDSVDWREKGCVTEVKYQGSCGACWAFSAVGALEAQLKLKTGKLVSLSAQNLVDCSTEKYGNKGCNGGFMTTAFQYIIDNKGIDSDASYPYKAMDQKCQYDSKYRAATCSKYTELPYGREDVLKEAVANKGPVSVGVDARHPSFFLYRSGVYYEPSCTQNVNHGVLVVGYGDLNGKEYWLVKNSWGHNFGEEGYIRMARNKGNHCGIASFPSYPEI

Consider `N#Cc1nccc(C2(NC(=O)Nc3ccc(-c4ccncc4)cc3)CCCCC2)n1` [Example 119, 1-(1-(2-cyanopyrimidin-4-yl)cyclohexyl)-3-(4-(pyridin-4-yl)phenyl)urea], for which the IC50 is 6790 nM at cathepsin L, 9.6 nM at cathepsin K, greater than 10000 nM against cathepsin B and greater than 10000 nM on cathepsin S.
Turning to `Cn1cc(-c2ccc(NC(=O)NC3(c4ccnc(C#N)n4)CCCCC3)cc2)cn1` [Example 120, 1-(1-(2-cyanopyrimidin-4-yl)cyclohexyl)-3-(4-(1-methyl-1H-pyrazol-4-yl)phenyl)urea], the IC50 against cathepsin L is greater than 10000 nM; on cathepsin K it was 3.9 nM; at cathepsin B it was 9280 nM; against cathepsin S, greater than 10000 nM.
Take `N#Cc1nccc(C2(NC(=O)Nc3ccc(-c4ccc(F)cc4)cc3)CCCCC2)n1` [Example 121, 1-(1-(2-cyanopyrimidin-4-yl)cyclohexyl)-3-(4′-fluoro-[1,1′-biphenyl]-4-yl)urea]: the IC50 on cathepsin L was greater than 10000 nM; at cathepsin K, 17.2 nM; on cathepsin B it was greater than 10000 nM; against cathepsin S it was greater than 10000 nM.
`C#Cc1ccc(-c2ccc(NC(=O)NC3(c4ccnc(C#N)n4)CCCCC3)cc2)cc1` [Example 122, 1-(1-(2-cyanopyrimidin-4-yl)cyclohexyl)-3-(4′-ethynyl-[1,1′-biphenyl]-4-yl)urea]: the IC50 at cathepsin L was greater than 10000 nM; on cathepsin K, 16.9 nM; against cathepsin B, greater than 10000 nM; against cathepsin S it was greater than 10000 nM.
For the molecule `N#Cc1nccc(C2(NC(=O)Nc3ccc(-c4cccc(F)c4)cc3)CCCCC2)n1` [Example 123, 1-(1-(2-cyanopyrimidin-4-yl)cyclohexyl)-3-(3′-fluoro-[1,1′-biphenyl]-4-yl)urea], the IC50 at cathepsin L was greater than 10000 nM; on cathepsin K, 10.2 nM; at cathepsin B, greater than 10000 nM; on cathepsin S, greater than 10000 nM.
On to `N#Cc1nccc(C2(NC(=O)Nc3ccc(-c4ccccc4F)cc3)CCCCC2)n1` [Example 124, 1-(1-(2-cyanopyrimidin-4-yl)cyclohexyl)-3-(2′-fluoro-[1,1′-biphenyl]-4-yl)urea], for which the IC50 at cathepsin L was greater than 10000 nM; at cathepsin K, 6.9 nM; against cathepsin B, greater than 10000 nM; at cathepsin S, greater than 10000 nM.
With `N#Cc1nccc(C2(NC(=O)Nc3ccc(-c4ccc(F)nc4)cc3)CCCCC2)n1` [Example 125, 1-(1-(2-cyanopyrimidin-4-yl)cyclohexyl)-3-(4-(6-fluoropyridin-3-yl)phenyl)urea], the IC50 is greater than 10000 nM on cathepsin L, 15.2 nM on cathepsin K, greater than 10000 nM against cathepsin B and 5420 nM against cathepsin S.
Regarding `N#Cc1nccc(C2(NC(=O)Nc3ccc(-c4ccc(C(F)(F)F)nc4)cc3)CCCCC2)n1` [Example 126, 1-(1-(2-cyanopyrimidin-4-yl)cyclohexyl)-3-(4-(6-(trifluoromethyl)pyridin-3-yl)phenyl)urea], the IC50 against cathepsin L is greater than 10000 nM; on cathepsin K it was 25.1 nM; against cathepsin B, greater than 10000 nM; at cathepsin S, 5750 nM.
For `COc1ccc(-c2ccc(NC(=O)NC3(c4ccnc(C#N)n4)CCCCC3)cc2)cn1` [Example 127, 1-(1-(2-cyanopyrimidin-4-yl)cyclohexyl)-3-(4-(6-methoxypyridin-3-yl)phenyl)urea], the IC50 on cathepsin L is greater than 10000 nM; at cathepsin K, 10.9 nM; against cathepsin B it was greater than 10000 nM; at cathepsin S it was greater than 10000 nM.
As to `N#Cc1nccc(C2(NC(=O)Nc3ccc(-c4cccnc4)cc3)CCCCC2)n1` [Example 128, 1-(1-(2-cyanopyrimidin-4-yl)cyclohexyl)-3-(4-(pyridin-3-yl)phenyl)urea], the IC50 on cathepsin L was greater than 10000 nM; at cathepsin K, 13.6 nM; at cathepsin B, greater than 10000 nM; against cathepsin S it was 9060 nM.
Regarding `CC(=O)Nc1ccc(-c2ccc(NC(=O)NC3(c4ccnc(C#N)n4)CCCCC3)cc2)cc1` [Example 129, N-(4′-(3-(1-(2-cyanopyrimidin-4-yl)cyclohexyl)ureido)-[1,1′-biphenyl]-4-yl)acetamide], the IC50 was greater than 10000 nM against cathepsin L, 4.9 nM on cathepsin K, greater than 10000 nM at cathepsin B and greater than 10000 nM on cathepsin S.
